For 87 molecules, melting point results are on record in a melting point compilation (Tetko et al.; mined from patent text by program, amines drawn as free bases though some values may be those of a salt).

As usually defined, the melting point is the temperature, or range, at which the solid turns liquid. The molecule `CC(C)c1cccc(C(C)C)c1NC(=O)CN1CCCN(CCCSc2nc3cccc(C(F)(F)F)c3o2)CC1` gave a melting point of 77 to 79 °C.
For `COC1=C(OC)C(=O)C(CCCCC[C@H]2CC[C@H](OC(C)=O)CC2)=C(C)C1=O`, the melting point was 33 to 34 °C.
`COc1ccc(CC(C)NCC(O)c2cccc(Cl)c2)cc1` (configuration not stated) registered a melting point of 80 to 87 °C.
In the case of `OC1(c2ccncc2)Cc2ccccc2C2=NCCN21` (configuration not stated) it was 162 to 164 °C; in that of `CN1CCOC2c3cccc4[nH]cc(c34)CC21` (configuration not stated), 175 to 177 °C.
In the case of `COC(=O)c1cc(N=Cc2ccccc2)ccc1OC(C)=O` it was 101 to 103 °C; in that of `COc1ccc(-c2c(/C=C/C(=O)O)ccc3cc(OC)ccc23)cc1`, 248 to 249 °C.
In the case of `CCS(=O)(=O)c1ncc(C(F)(F)F)cn1` it was 98 °C.
`Cn1cc(-c2cc3nccnc3[nH]2)c2cc(C(=O)O)ccc21` came in with a melting point of 350 °C.
In the case of `COc1cc(C(=O)N2Cc3ccccc3Cc3ccccc32)ccc1NC(=O)c1ccccc1C` it was 209 to 210 °C.
In the case of `CC(C)(C)OC(=O)Nn1c(=O)cc2n(C3CC3)c3cc(N4CCN(C(=O)OC(C)(C)C)CC4)c(F)cc3n2c1=O` it was 219 to 220 °C.
In the case of `NCCCN1CCC(c2c[nH]c3cc(F)ccc23)CC1` it was 102 °C; in that of `Cc1c(O[Si](C(C)C)(C(C)C)C(C)C)cc2occ(N3CCC(O)(c4ccc(F)cc4)CC3)c(=O)c2c1Br`, 193 to 195 °C.
With `OC(c1ccccc1)c1ccc2nc3ccc(C(O)c4ccccc4)cc3c(-c3ccccc3)c2c1` (configuration not stated), the melting point was more than 280 °C.
Next, `CS(=O)(=O)c1ccc(-c2cnn(-c3cccc(Cl)c3)c(=O)c2C2CCCC2)cc1`: 155 to 157 °C.
In turn, `CC(=O)Oc1cc(C)cc(C(=O)N[C@@H](Cc2ccccc2)[C@H](OC(C)=O)C(=O)O)c1C` came in with a melting point of 185 to 186 °C.
In the case of `CC(C)(OC(=O)c1ccccc1)c1nccc2ccccc12` it was 116 to 119 °C.
In turn, `C=Cc1cnc2c(NC(=O)c3c(Cl)cccc3Cl)cccc2c1CO` showed a melting point of 243 to 244 °C.
`CC(C)(C)C1=CC(=CC#Cc2ccc(C(=O)O)cc2)C=C(C(C)(C)C)C1=O` displayed a melting point of 216 to 218 °C.
For `CCOP(=O)(OCC)SCS(=O)C(C)(C)C` (configuration not stated), the melting point lay within 34.5 to 36 °C.
`Nc1c(Cl)cccc1NC(=S)Nc1cscc1Cl`: the melting point lay within 276 to 280 °C.
Next, `COC(=O)c1ccc(Cn2nc(CO)c3ccc(C(=O)NCC4CCCC4)cc32)c(OC)c1`: 187 to 188 °C; `Clc1ccc(COCCOc2ccc(-c3ccccc3)cc2)cc1`: 85 to 87 °C; `CCCCCCCCc1ccc(OCC(=O)Cn2c(C(=O)O)cc3ccccc32)cc1`: 173 °C.
Next, `COC(=O)c1c(C)c([N+](=O)[O-])cc2nc(OC)c(OC)nc12`: 174 to 176 °C; `COC(=O)C(=O)c1ccc(OCCCCCCOc2ccccc2)cc1`: 50 to 52 °C.
Regarding `CC(=O)c1cc([N+](=O)[O-])c(Cl)c([N+](=O)[O-])c1`, the melting point is 86 to 86.5 °C.
Next, `CCc1nnc(-c2ccc(OC)cc2)n1-c1ccc(OC)cc1`: 122 °C.
In the case of `O=C(O)c1cccc(OC(F)(F)C(F)(F)F)c1` it was 131 to 134 °C; in that of `CC12CCC(OS(=O)(=O)C(F)(F)F)=CC1=CCC1C2CCC2(C)C(C(=O)N(C(=S)NC3CCCCC3)C3CCCCC3)CCC12` (configuration not stated), 123 to 124 °C; in that of `Cc1ccc(OCCN2CCN(c3cc(Cl)nnc3Cl)CC2)cc1`, 95 to 96 °C.
In turn, `O=C1CC2(CCCC2)C(=O)N1c1ccncc1` gave a melting point of 100 to 103 °C.
In turn, `CCOC(=O)C1CCN(C(=O)c2[nH]c(C)c(-c3nc4ccc(C(=O)c5ccccc5)cc4[nH]3)c2C)CC1` gave a melting point of 272 to 274 °C.
As to `Cc1cc(=O)oc2cccc(OC(=S)N(C)C)c12`, the melting point was 166 to 168 °C.
In the case of `Cc1nnc2n1-c1ccc(C#CCn3nc4ccccn4c3=O)cc1C(c1ccccc1F)=NC2` it was 170 to 173 °C.
As for `O=C(O)c1cn(-c2cccc(F)c2)c2c(F)c(F)c(F)cc2c1=O`, the melting point fell in the range of 89 to 91 °C.
In the case of `Cc1nc(C)nc(NC(=O)NS(=O)(=O)c2ccccc2C)n1` it was 141 to 145 °C; in that of `COc1ccc([C@H](O)[C@@H](Cc2ccc(C(F)(F)F)cc2)C(=O)O)cc1` (racemic), 113 to 114 °C.
Next, `CC(=Cc1cn(C)c2ccc3c(c12)CCCO3)[N+](=O)[O-]`: 200 to 202 °C; `COC(=O)c1cc2nccnc2cc1NC(=O)OC(C)(C)C`: 196 to 198 °C; `CCOC(=O)C1COc2cc(C(C)=O)ccc2O1` (configuration not stated): 60 °C.
Next, `COc1ccc2c(c1)c(SC(C)(C)C)c(CC(C)(C)C(=O)O)n2Cc1ccc(Cl)cc1`: 190 to 191 °C; `CN1CCN(C2CC3C4CCC5CC6OC6CC5(C)C4CCC3(C)C2O)CC1` (configuration not stated): 149 to 153 °C.
`Oc1ccc(O)c(O)c1O` had a melting point of 162 to 164 °C.
In the case of `CCCCCCCCCCCCCCCCCCOc1cc(OCCCCC(=O)OC)cc(C(=O)O)c1` it was 68 to 70 °C; in that of `COC(=O)CCCc1cc2c(Cl)c(C#N)cnc2s1`, 55 to 57 °C; in that of `CCCCCCCCCCNC(=O)c1cc(NCC(=O)O)cc(C(=O)NCCCCCCCCCC)c1`, 172 to 173 °C.
Next, `Nc1ncccc1-c1nc2ccc(Cl)nc2n1-c1ccc(CNC(=O)c2cccc(F)c2)cc1`: 240 to 243 °C.
Next, `CCCCCCCCCCCCNC(=O)c1cc(-c2cc(Cl)cc(Cl)c2)c(OCC(=O)O)c(-c2cc(Cl)cc(Cl)c2)c1`: 139 to 144 °C; `CC1OC2(CCN(c3nc(=O)c4cc(C(F)(F)F)cc([N+](=O)[O-])c4s3)CC2)OC1C` (configuration not stated): 205 to 207 °C; `Cc1ccc(C=C(C#N)c2ccccc2)cc1`: 61 °C.
In the case of `O=[N+]([O-])c1ccc(S)c(Cl)c1`, the melting point was 77 to 78 °C.
In the case of `COc1ccc2c(c1)C=C(C(=O)O)CCO2` it was 176 to 177 °C; in that of `CC(C)(CF)C(=O)C(Oc1ccc(Cl)cc1)n1cncn1` (configuration not stated), 60 to 63 °C; in that of `COc1ccccc1NC(=O)Nc1nc(Nc2ccccc2-c2ccccc2)nc(N(CCC(=O)O)Cc2cccc(F)c2)n1`, 115 to 128 °C.
Next, `CC1(C)[C@@H](C=C(Cl)c2ccc(Cl)cc2)[C@@H]1C(=O)O` (relative stereo): 103 to 106 °C; `Nc1ccc(-n2ccc(=O)cc2)cc1N`: 257 to 260 °C.
Next, `CCCCCCCCCCCCCCCCCC(=O)OC1CC(C)(C)N(OC2CCCCC2)C(C)(C)C1`: 44 to 47 °C; `CCCCc1nc2ccc(C3=NN4CCCC4C3)cc2c(=O)n1Cc1ccc(-c2ccccc2-c2nnn[nH]2)cc1` (configuration not stated): 126 °C; `Cc1c(-c2ccncc2)[nH]c(-c2ccncc2)c1CO`: 258 to 261 °C.
In the case of `O=C=Nc1ccc(S(=O)(=O)Cl)cc1`, the melting point lay in the range of 50 to 52 °C.
Consider `C=CCc1cc2c(c(CC=C)c1O)CCC(=O)N2CCCn1cnnc1`, for which the melting point was 129 to 132 °C.
Next, `Cc1ccc2oc(=O)c(C(=O)Oc3cc(F)ccc3[N+](=O)[O-])cc2c1`: 224 to 226 °C; `CNC(=O)C(Cc1ccc(O)cc1)NC(=O)Nc1n[nH]c(=S)s1` (configuration not stated): 198 to 200 °C; `COCCNC(=O)c1ccc(SC)c(N)c1`: 66 to 68 °C.
Molecule `COC1C(O)C(CO)OC1n1cnc2c(=S)n(C)cnc21` (configuration not stated) displayed a melting point of 182 to 187 °C.
In the case of `CC(=O)N1C(C)(C)CC(Oc2nc(OC3CC(C)(C)N(O)C(C)(C)C3)nc(N3C(C)(C)CCCC3(C)C)n2)CC1(C)C` it was 175 to 176 °C.
Next, `NC(=O)c1c(C(F)(F)F)nn(-c2c(Cl)cc(C(F)(F)F)cc2Cl)c1N`: 169 to 171 °C; `CCCCCCCCCCCCCCOc1ccc(CC(=O)OCC)cc1OC`: 40 to 41 °C.
In the case of `Cc1nnc2n1-c1ccc(Cl)cc1C(c1ccccc1Cl)=NN2Cc1ccncc1` it was 195 to 196 °C; in that of `CCCc1c2cc(C(=O)OCC)oc2cc2c(=O)cc(C(=O)OCC)oc12`, 145 to 147 °C.
Consider `CCN1C(=O)C(C)(C)C(=O)N(C)c2cc(C(=O)O)ccc21`, for which the melting point lay within 296 to 299 °C.
As for `C=C1[C@H](O)C[C@H](O[Si](C)(C)C(C)(C)C)[C@H]1CO[Si](C)(C)C(C)(C)C`, the melting point fell in the range of 64 to 66 °C.
Next, `N=C(N)N1CCC(CCC(=O)O)CC1`: more than 275 °C.
The molecule `O=C(Cc1ccc2c(c1)OCO2)N[C@H]1CC[C@H](CCN2CCN(c3nccc4c3CCO4)CC2)CC1` displayed a melting point of 212 °C.
In the case of `Nc1cc(-c2ccccc2CCN2CCN(c3nccn3-c3ccccc3)CC2)ccn1` it was 140 to 142 °C; in that of `CCOC(=O)COc1cc2c(c(Cl)c1Cl)C(=O)C(c1ccc(F)cc1)C2` (configuration not stated), 143 to 144 °C.
Next, `CN(C=O)c1cc(F)ccc1C(=O)COC(=O)c1ccccc1`: 93 to 95 °C; `N#Cc1cccc(C(Oc2ccccc2)Oc2ccccc2)n1`: 82 to 85 °C.
In the case of `CC(=O)c1cc(C(C)=O)c(O)c(C(C)C)c1O` it was 132 to 133 °C.
Take `CC(=O)N1CCC(O)(C(=O)c2ccc(F)cc2)CC1`: the melting point was in the range of 146 to 149 °C.
Next, `CCOC(=O)c1nc(-c2ccc(F)cc2)[nH]c1CC`: 197 to 198 °C; `O=C(O)c1cccc(CN2C(=O)C3(COc4cc5c(cc43)OCCO5)c3ccccc32)c1` (configuration not stated): 254 to 258 °C.
With `CNS(=O)(=O)C1CN(C)c2cc(F)ccc2C1=O` (configuration not stated), the melting point fell in the range of 134 to 136 °C.
In the case of `O=S(=O)(CC(F)(F)F)Nc1cccc2c1CCCC2c1c[nH]cn1` (single isomer, unassigned; (+)) it was more than 260 °C.
`ClCCCOc1ccc2ccccc2c1` registered a melting point of 46 to 49 °C.
In the case of `CCc1cc(C)cc(CC)c1C1C(=O)C2CC(COc3nc(C)c(C)s3)CC2C1=O` (configuration not stated) it was 73 to 74 °C.
